Experimental data as given in ChEMBL document CHEMBL1152775, “Effect of 3,4-ethylenedioxy-extension of thiophene core on the DNA/RNA binding properties and biological activity of bisbenzimidazole amidines” (Bioorg Med Chem, 2009).
Activity calls are given as the source filed them. No cut-off for these calls is given here.

Experiments:
[1] = system: Nucleic Acid; test: Binding affinity to poly A-poly U double stranded RNA assessed as change in melting temperature at […] of 0.1 by thermal denaturation study; type: nucleic-acid assay
[2] = system: Calf thymus DNA; test: Binding affinity to calf thymus double stranded DNA assessed as change in melting temperature at drug to DNA ratio of 0.05 by thermal denaturation study; type: nucleic-acid assay; details: Bos taurus
[3] = system: MCF7; test: Antiproliferative activity against human MCF7 cells at 0.1 to 100 uM after 72 hrs by MTT assay; type: functional, cell-based
[4] = system: Calf thymus DNA; test: Binding affinity to calf thymus double stranded DNA assessed as change in melting temperature at drug to DNA ratio of 0.2 by thermal denaturation study; type: nucleic-acid assay; details: Bos taurus
[5] = system: Calf thymus DNA; test: Binding affinity to calf thymus double stranded DNA minor groove at drug to DNA ratio of 0 to 0.2 by CD spectroscopy; type: nucleic-acid assay; details: Bos taurus
[6] = Binding affinity to poly A-poly U double stranded RNA by CD spectroscopy
[7] = system: Calf thymus DNA; test: Binding affinity to calf thymus double stranded DNA by UV visible spectroscopy; type: nucleic-acid assay; details: Bos taurus
[8] = system: Calf thymus DNA; test: Binding affinity to calf thymus double stranded DNA assessed as change in melting temperature at drug to DNA ratio of 0.3 by thermal denaturation study; type: nucleic-acid assay; details: Bos taurus
[9] = system: Nucleic Acid; test: Binding affinity to poly A-poly U double stranded RNA assessed as change in melting temperature at […] of 0.2 by thermal denaturation study; type: nucleic-acid assay
[10] = species: Bos taurus; test: Ratio of IC50 of ethidium bromide to IC50 of drug for calf thymus DNA by ethidium bromide displacement assay
[11] = Binding affinity to poly A-poly U double stranded RNA by UV visible spectroscopy
[12] = system: Calf thymus DNA; test: Binding affinity to calf thymus double stranded DNA assessed as change in melting temperature at drug to DNA ratio of 0.1 by thermal denaturation study; type: nucleic-acid assay; details: Bos taurus
[13] = system: Nucleic Acid; test: Binding affinity to poly A-poly U double stranded RNA assessed as change in melting temperature at […] of 0.3 by thermal denaturation study; type: nucleic-acid assay
[14] = system: HeLa; test: Cell cycle distribution in human HeLa cells assessed as accumulation at G0/G1 phase at 1 uM after 72 hrs by propidium iodide-based flow cytometry; type: functional
[15] = system: AGS; test: Antiproliferative activity against human AGS cells at 0.1 to 100 uM after 72 hrs by MTT assay; type: functional, cell-based
[16] = system: HeLa; test: Cell cycle distribution in human HeLa cells assessed as accumulation at G2/M phase at 1 uM after 24 hrs by propidium iodide-based flow cytometry; type: functional
[17] = system: Trypanosoma cruzi; test: Antitrypanosomal activity against Trypanosoma cruzi clone 14 epimastigotes on day 5; type: functional, organism-based; details: 120 h
[18] = system: HEp-2; test: Antiproliferative activity against human Hep2 cells at 1 uM after 72 hrs by MTT assay relative to control; type: functional; details: HEp-2, 72 h
[19] = system: HeLa; test: Cell cycle distribution in human HeLa cells assessed as accumulation at S phase at 1 uM after 72 hrs by propidium iodide-based flow cytometry; type: functional
[20] = system: HT-29; test: Antiproliferative activity against human HT-29 cells at 0.1 to 100 uM after 72 hrs by MTT assay; type: functional, cell-based
[21] = system: HEp-2; test: Antiproliferative activity against human Hep2 cells at 0.1 to 100 uM after 72 hrs by MTT assay; type: functional, cell-based
[22] = system: MCF7; test: Antiproliferative activity against human MCF7 cells at 0.1 uM after 72 hrs by MTT assay relative to control; type: functional; details: MCF7, 72 h
[23] = system: Trypanosoma cruzi; test: Antitrypanosomal activity against Trypanosoma cruzi clone 14 epimastigotes after 8 days; type: functional, organism-based; details: 192 h
[24] = system: Caco-2; test: Antiproliferative activity against human Caco-2 cells at 0.1 to 100 uM after 72 hrs by MTT assay; type: functional, cell-based
[25] = system: HeLa; test: Antiproliferative activity against human HeLa cells at 0.1 to 100 uM after 72 hrs by MTT assay; type: functional, cell-based
[26] = system: HeLa; test: Cell cycle distribution in human HeLa cells assessed as accumulation at G0/G1 phase at 1 uM after 48 hrs by propidium iodide-based flow cytometry; type: functional
[27] = system: HeLa; test: Antiproliferative activity against human HeLa cells at 1 uM after 72 hrs by MTT assay relative to control; type: functional
[28] = system: HeLa; test: Cell cycle distribution in human HeLa cells assessed as accumulation at G2/M phase at 1 uM after 72 hrs by propidium iodide-based flow cytometry; type: functional
[29] = system: HeLa; test: Cell cycle distribution in human HeLa cells assessed as accumulation at G2/M phase at 1 uM after 48 hrs by propidium iodide-based flow cytometry; type: functional
[30] = system: MIA PaCa-2; test: Antiproliferative activity against human MIAPaCa2 cells at 0.1 to 100 uM after 72 hrs by MTT assay; type: functional, cell-based
[31] = system: HeLa; test: Cell cycle distribution in human HeLa cells assessed as accumulation at S phase at 1 uM after 48 hrs by propidium iodide-based flow cytometry; type: functional
[32] = system: NCI-H358; test: Antiproliferative activity against human NCI-H358 cells at 0.1 to 100 uM after 72 hrs by MTT assay; type: functional, cell-based
[33] = system: HeLa; test: Cell cycle distribution in human HeLa cells assessed as accumulation at G0/G1 phase at 10 uM after 72 hrs by propidium iodide-based flow cytometry; type: functional
[34] = system: HeLa; test: Cell cycle distribution in human HeLa cells assessed as accumulation at G2/M phase at 10 uM after 24 hrs by propidium iodide-based flow cytometry; type: functional
[35] = system: HeLa; test: Cell cycle distribution in human HeLa cells assessed as accumulation at G0/G1 phase at 10 uM after 48 hrs by propidium iodide-based flow cytometry; type: functional
[36] = system: HeLa; test: Cell cycle distribution in human HeLa cells assessed as accumulation at S phase at 10 uM after 72 hrs by propidium iodide-based flow cytometry; type: functional
[37] = system: HeLa; test: Cell cycle distribution in human HeLa cells assessed as accumulation at S phase at 10 uM after 48 hrs by propidium iodide-based flow cytometry; type: functional
[38] = system: HeLa; test: Cell cycle distribution in human HeLa cells assessed as accumulation at G2/M phase at 10 uM after 48 hrs by propidium iodide-based flow cytometry; type: functional
[39] = system: HeLa; test: Cell cycle distribution in human HeLa cells assessed as accumulation at G2/M phase at 10 uM after 72 hrs by propidium iodide-based flow cytometry; type: functional

Row | Compound | ΔTm [1] [°C] | ΔTm [2] [°C] | Activity [3] | ΔTm [4] [°C] | Activity [5] | Activity [6] | Activity [7] | ΔTm [8] [°C] | ΔTm [9] [°C] | Ratio IC50 [10] | Activity [11] | ΔTm [12] [°C] | ΔTm [13] [°C] | also measured
1 | c1cc2nc(-c3sc(-c4nc5ccc(C6=NCCN6)cc5[nH]4)c4c3OCCO4)[nH]c2cc1C1=NCCN1 | 0.4 | 12.2 | Active | 11.4 | Active | Active | Active | 12.3 | 0.3 | 0.38 | Active | 11.9 | -0.2 | 
2 | CC(C)NC(=N)c1ccc2nc(-c3sc(-c4nc5ccc(C(=N)NC(C)C)cc5[nH]4)c4c3OCCO4)[nH]c2c1.Cl.Cl | 0.9 | 11.7 | Active | > 15.4 | Active | Active | Active |  | 0.8 | 0.38 | Active | > 15.4 |  | Activity [14]: 30.7%; Activity [15]: Active; Activity [16]: Active; IC50 [17]: 4.25 µM; inhibition at 1 µM [18]: 80%; Activity [19]: 49.8%; Activity [20]: Active; Activity [21]: Active; inhibition at 0.1 µM [22]: 40%; IC50 [23]: 2.4 µM; Activity [24]: Active; Activity [25]: Active; Activity [26]: 46.9%; inhibition at 1 µM [27]: 40%; Activity [28]: 15.2%; Activity [29]: 35%; Activity [30]: Active; Activity [31]: 22.4%; Activity [32]: Active
3 | CN1CCN(c2ccc3[nH]c(-c4ccc5[nH]c(-c6ccc(O)cc6)nc5c4)nc3c2)CC1 [HOECHST 33258] |  |  | Active |  |  |  |  |  |  |  |  |  |  | Activity [33]: 43.1%; Activity [34]: inactive; Activity [35]: 33.6%; Activity [36]: 46.3%; Activity [37]: 23.4%; Activity [38]: 23.9%; Activity [39]: 29.9%
4 | N=C(N)c1ccc2nc(-c3sc(-c4nc5ccc(C(=N)N)cc5[nH]4)c4c3OCCO4)[nH]c2c1 |  | 12.7 | Active | 13.9 | Active | Active | Active | 12.9 | -0.3 | 0.48 | Active | 14.4 | -0.9 | 
